This is an account of results in publication PMC8145938, “Triphenilphosphonium Analogs of Chloramphenicol as Dual-Acting Antimicrobial and Antiproliferating Agents” (Antibiotics, 2021).

Broadly, the MIC is the lowest concentration found to suppress growth.

≈ marks a conversion by molar mass, not a printed value. Read-outs that look alike come from different tables or passages of the source. Where only a bound is given, the exact number is not on record here.

Assay [1] has as its system B. subtilis pHT01-cat. In words: MIC determination, broth microdilution. Format: cell-based. Conditions: Bacillus subtilis, PHT01CAT. As to the method: (§1) E. coli ∆tolC CHL-resistant strain harboring plasmid encoding for chloramphenicol acetyltransferase (cat) (pCA24N-LacZ) and the control E. coli ∆tolC strain was used to evaluate the inhibitory effect of the compounds. CHL-resistant strains of B. subtilis pHT01-cat and B. subtilis pHT01-cfr were prepared by means of a transformation of a B. subtilis 168 strain with plasmids harboring the cat and cfr genes (chloramphenicol-florfenicol resistance) gene. The cfr gene encodes for the methyltransferase, which catalyzes the methylation of […] in the 23S rRNA and causes resistance to a variety of ribosome-targeting antibiotics that bind in the A site of the bacterial ribosome.
(§2) A standard laboratory strain of B. subtilis 168 was used to obtain the CHL-resistant strains, B. subtilis pHT01-CAT and B. subtilis pHT01-cfr, by means of transformation with the corresponding plasmids. Competent cell preparation and transformation procedures were conducted, as reported in [74, 75]. The desired colonies were selected at 10 µg/mL of CHL for B. subtilis pHT01 and 5 µg/mL or 3.2 µg/mL of CHL for B. subtilis pHT01-cfr.
(§3) The MICs for CAM-Cn-TPP and Cn-TPP were determined by Mueller-Hinton broth microdilution, as recommended by CLSI in the Methods for Dilution Antimicrobial Susceptibility Tests for Bacteria that Grow Aerobically, Approved Standard, 9th ed., CLSI document M07-A9, using in-house-prepared panels. The compounds were diluted in a 96-well microtiter plate to final concentrations ranging from 0.5 to 360 μM in a 250-µL aliquot of the bacterial suspension, followed by incubation at 37 °C or 30 °C for 18 h. […] The bacterial growth was observed visually alongside OD measurements. The experiments were carried out in triplicate.
For orientation: Dilution methods test growth across graded concentrations, often in twofold steps.

Assay [2] has as its system B. subtilis pHT01-cfr. In words: MIC determination, broth microdilution. It counts as cell-based. The conditions noted are these: Bacillus subtilis, PHT01CFR. As to the method:
as §1, §2, §3

Assay [3] has as its system E. coli S30 extract cell-free transcription-translation system. Description: inhibition of firefly luciferase synthesis in cell-free bacterial translation system. Conditions: 30 µM compound. Format: biochemical. As to the method:
The next step was to test the new CAM-Cn-TPP compounds for their ability to inhibit the synthesis of the firefly luciferase reporter in vitro in a cell-free transcription-translation system based on an E. coli S30 extract.
The inhibition of firefly luciferase synthesis in cell-free translation systems by CAM-Cn-TPP was tested with an E. coli S30 Extract System for Linear Templates (Promega, Madison, […], USA). The reactions were programmed with 100 ng of mRNA and were carried out in 5 μL aliquots at 37 °C for 30 min. The activity of in vitro synthesized luciferase was assessed using 5 μL of the substrate from the Steady-Glo Luciferase Assay System (Promega).

The test system of assay [4] is Escherichia coli J53rif. Description: MIC determination, CHL resistant E. coli strains. Format: cell-based.
Text: (§4) Standard laboratory strains of Bacillus subtilis subs. subtilis Cohn 1872, stains BR151, and 168, Staphylococcus aureus subsp. aureus Rosenbach 1884 strains JCM 2151 and entry MC#144 (from the Microorganisms Collection of the Moscow State University), Listeria monocytogenes Pirie 1940, Mycobacterium smegmatis Lehmann and Neumann 1899 (MC#377), and Escherichia coli Castellani and Chalmers 1919, strain JW5503 (with the deletion of tolC gene), which are resistant to the chloramphenicol strains, J53rif, C600rif/pIB55-1, C600rif/pIP162-1, and C600recA naI, were used.
as §3

The subject of assay [5] is Escherichia coli C600recA naI. Description: MIC determination, CHL resistant E. coli strains. Format: cell-based. Conditions: C600RECANAI.
Text: as §4, §3

Assay [6] relates to Escherichia coli C600rif/pIB55-1. In words: MIC determination, CHL resistant E. coli strains. It counts as cell-based.
Text: as §4, §3

Assay [7] has as its system Escherichia coli C600rif/pIP162-1. Description: MIC determination, CHL resistant E. coli strains. It counts as cell-based.
Text: as §4, §3

Assay [8] deals with VA13. Description: MTT assay growth inhibition. It counts as cell-based. The conditions noted are these: VA-13, 72 h, read-out: 50% growth inhibition concentration (GI50). How it is done:
(§5) The cytotoxicity of the tested substances was tested using the MTT (3-(4,5-dimethylthiazol-2-yl)-2,5-diphenyltetrazolium bromide) assay, with some modifications, and 2500 cells per well for the MCF7, HEK293T, and A549 cell lines or 4000 cells per well for the VA-13 cell line were plated in 135 µL of DMEM-F12 media (Gibco, Waltham, MA, USA) in a 96-well plate and incubated in the 5% CO2 incubator for first 16 h, without treatment. Then, 15 µL of media-DMSO solutions of the tested substances was added to the cells (the final DMSO concentrations in the media were 1% or less) and treated cells for 72 h with 25 nM–50 µM (eight dilutions) of our substances (triplicate each), and serial DMSO dilutions and doxorubicin were used as controls. The MTT reagent (Paneco LLC, Moscow, Russia) was then added to cells to a final concentration of 0.5 g/L (10× stock solution in PBS was used) and incubated for 2.5 h at 37 °C in the incubator under an atmosphere of 5% CO2. The MTT solution was then discarded, and 140 µL of DMSO (PharmaMed LLC, Krasnodarsky Krai, Russia) was added. The plates were swayed on a shaker (60 rpm) to dissolve the formazan. The absorbance was measured using a microplate reader (VICTOR X5 Light Plate Reader, PerkinElmer, Waltham, MA, USA) at a wavelength of 565 nm (in order to measure formazan concentration). The results were used to construct a dose-response graph and to estimate the CC50 value.

Assay [9] concerns MCF7. In words: MTT assay growth inhibition. The conditions noted are these: Homo sapiens, 72 h, read-out: 50% growth inhibition concentration (GI50). Format: cell-based. How it is done:
as §5
For orientation: Tetrazolium assays rely on reduction of a dye to a coloured formazan, in cell work by metabolically active cells.

The subject of assay [10] is HEK293T. Description: MTT assay growth inhibition. Conditions: Homo sapiens, HEK-293T, 72 h, read-out: 50% growth inhibition concentration (GI50). Format: cell-based. How it is done: as §5
Assay [11] has as its system Listeria monocytogenes. Description: MIC determination, broth microdilution. Format: cell-based.
Text: as §4
(§6) S. aureus was grown in Bacto Tryptic Soy Broth, L. monocytogenes in Brain Heart Infusion Broth, and E. coli in LB. Bacterial cells were grown at 30 °C or 37 °C in the appropriate medium at a 140 rpm shaking frequency.
as §3

Assay [12] relates to Staphylococcus aureus. In words: MIC determination, broth microdilution. It counts as cell-based.
Text: as §4, §6, §3

Assay [13] relates to A549. Description: MTT assay growth inhibition. Format: cell-based, human. The conditions noted are these: for selectivity of action for A549 and noncancerous VA13 cell lines: A549 vs VA13; for GI50: Homo sapiens, A549, MTT, 72 h, read-out: 50% growth inhibition concentration (GI50). As to the method: as §5
The mark [14] stands for this setting: Table 1, double-dilution method, read-out: MIC.

For the compound `O=C(CCCCCCCCCC[P+](c1ccccc1)(c1ccccc1)c1ccccc1)N[C@H](CO)[C@H](O)c1ccc([N+](=O)[O-])cc1` [CAM-C10-TPP, (N-{[(1R,2R)-1,3-dihydroxy-1-(4-nitrophenyl)propan-2-yl]amino}-11-oxoundecyl)(triphenyl)phosphonium bromide], the minimum inhibitory concentration (MIC) in assay [1] was 6 µM; in [2] it was 6 µM; in [4], 110 µM; in assay [5], 107 µM; in assay [6] it was 90 µM; in assay [7], above 199 µM. Further, the minimal inhibitory concentration (MIC) came out at 6 µM in assay [11] and 5 µM in [12]. Besides, the “inhibition of bacterial translation (luciferase synthesis)” value (“inhibition of bacterial translation” for short) in [3] is “inhibits bacterial translation”. Further, the GI50 was 2.8 ± 0.5 µM in [8], 1 ± 0.1 µM in assay [9], 0.62 ± 0.04 µM in assay [10] and 0.7 ± 0.1 µM in assay [13]. In assay [13], the “selectivity of action for A549 and noncancerous VA13 cell lines” value is given as “approximately 4 times”.

`O=C(CCCCCCCCCC[P+](c1ccccc1)(c1ccccc1)c1ccccc1)NCCCC(=O)N[C@H](CO)[C@H](O)c1ccc([N+](=O)[O-])cc1` [CAM-C14-TPP, N-[(1R,2R)-1,3-dihydroxy-1-(4-nitrophenyl)propan-2-yl]-4-(triphenyl)phosphoniumundecanamidobutamide bromide]: the minimum inhibitory concentration (MIC) in [1] stood at 12.5 µM; in assay [2], 6 µM; in assay [11] it was 17 µM; in assay [12] it was 12 µM. Further, in [3], the “inhibition of bacterial translation” value is reported as “inhibits bacterial translation”. Besides, the GI50 in assay [8] was 5.2 ± 0.9 µM; in [9] it was 5.8 ± 0.8 µM; in assay [10], 3.6 ± 0.5 µM; in assay [13] it was 2.9 ± 0.4 µM. In addition, in [13], the “selectivity of action for A549 and noncancerous VA13 cell lines” value is listed as around 2 times.

In the case of `O=C(N[C@H](CO)[C@H](O)c1ccc([N+](=O)[O-])cc1)C(Cl)Cl` [CHL, chloramphenicol], the MIC in assay [1] is 180 µM (≈ 58.2 µg/mL); in [2], 90 µM (≈ 29.1 µg/mL); in [4], above 396 µM; in assay [5] it was above 396 µM; in [6], above 396 µM; in assay [7], above 396 µM. Also, the results for the MIC in [11] (setting [14]) and in [12] (setting [14]) were 25 µM (≈ 8.08 µg/mL) and 60 µM (≈ 19.4 µg/mL), respectively. The “inhibition of bacterial translation” value in [3] is reported as “inhibits bacterial translation”. Moreover, the GI50 in [8], in assay [9], in assay [10] and in assay [13] was above 50 µM each time.
